This is an account of results in ChEMBL document CHEMBL4007504, “Docking, synthesis and antimalarial activity of novel 4-anilinoquinoline derivatives” (Bioorg Med Chem Lett, 2017).

pIC50: −log10 of the molar value.

One series deals with Plasmodium berghei. Put plainly: Antimalarial activity against chloroquine-sensitive Plasmodium berghei infected in Swiss albino mouse assessed as chemosuppression at 200 mg/kg, po qd administered for 4 days by peter's test relative to control. The conditions noted are these: 96 h. The series is classed as functional.
In a further series the test system is Mus musculus. In words: Toxicity in Swiss albino mouse at 2000 mg/kg, po. Type of series: organism-based. The settings on record: in vivo.
The next series relates to Plasmodium falciparum. Put plainly: Antimalarial activity against chloroquine-resistant Plasmodium falciparum W2 infected in human erythrocytes assessed as parasite growth inhibition after 48 hrs by YOYO1 probe-based flow cytometric method. Type of series: functional, cell-based. The settings on record: W2, 48 h.
Another series addresses Ferriprotoporphyrin IX. Put plainly: Binding affinity to haematin assessed as inhibition of NP40-mediated beta-haematin formation after 4 hrs by pyridine-ferrochrome method.

What is called inhibition in vivo is the change of the read-out against control, counted positive when it falls. The pIC50 is the negative decadic logarithm of the IC50, by convention in mol/L. Regarding `CN(C)c1nc(Cl)nc(Nc2ccc(Nc3ccnc4cc(Cl)ccc34)cc2)n1`, the inhibition in vivo at 200 mg/kg in the series on Plasmodium berghei is 95.2%. In addition, the Activity entry with Mus musculus is “Non-Toxic”. The pIC50 is 6.42 in the series with Plasmodium falciparum and 4.53 on Ferriprotoporphyrin IX.
On the same counts, the results for `CCN(CC)c1nc(Cl)nc(Nc2ccc(Nc3ccnc4cc(Cl)ccc34)cc2)n1` are 95.5%, “Non-Toxic”, 6.57 and 4.67.
As for `CCCN(CCC)c1nc(Cl)nc(Nc2ccc(Nc3ccnc4cc(Cl)ccc34)cc2)n1`, the inhibition in vivo at 200 mg/kg in the series on Plasmodium berghei amounted to 91.5%. Also, the Activity entry in the series with Mus musculus is listed as “Non-Toxic”. Further, the negative logarithm of the IC50 (pIC50) was 8.10 with Plasmodium falciparum and 4.73 on Ferriprotoporphyrin IX.
In the same order, the values of `Clc1ccc2c(Nc3ccc(Nc4nc(Cl)nc(N(c5ccccc5)c5ccccc5)n4)cc3)ccnc2c1` are 97.4%, “Non-Toxic”, 6.59 and 4.60.
In the same order, the values of `Clc1ccc2c(Nc3ccc(Nc4nc(Cl)nc(N5CCNCC5)n4)cc3)ccnc2c1` are 94.8%, “Non-Toxic”, 6.78 and 4.63.
On the same counts, the results for `Clc1ccc2c(Nc3ccc(Nc4nc(Cl)nc(NCc5ccccc5)n4)cc3)ccnc2c1` are 97%, “Non-Toxic”, 6.91 and 4.66.
`O=[N+]([O-])c1ccc(Nc2nc(Cl)nc(Nc3ccc(Nc4ccnc5cc(Cl)ccc45)cc3)n2)cc1`: in the series with Plasmodium berghei, the inhibition in vivo at 200 mg/kg stood at 97.4%. Also, the Activity entry with Mus musculus was “Non-Toxic”. Also, the pIC50 with Plasmodium falciparum was 6.84; at Ferriprotoporphyrin IX it was 4.64.
In the same order, the values of `Clc1ccc2c(Nc3ccc(Nc4nc(Cl)nc(N5CCCC5)n4)cc3)ccnc2c1` are 97%, “Non-Toxic”, 6.92 and 4.55.
As to `COc1ccccc1Nc1nc(Cl)nc(Nc2ccc(Nc3ccnc4cc(Cl)ccc34)cc2)n1`, in the series on Plasmodium berghei, the inhibition in vivo at 200 mg/kg is 94.8%. In addition, in the series with Mus musculus, the Activity entry was “Non-Toxic”. In addition, the negative logarithm of the IC50 (pIC50) in the series on Plasmodium falciparum is 6.84; on Ferriprotoporphyrin IX it was 4.68.
In the same order, the values of `Nc1ccc(Nc2ccnc3cc(Cl)ccc23)cc1` are 85.9%, “Non-Toxic”, 6.09 and 4.49.
For `CC(C)N(c1nc(Cl)nc(Nc2ccc(Nc3ccnc4cc(Cl)ccc34)cc2)n1)C(C)C`, the inhibition in vivo at 200 mg/kg in the series with Plasmodium berghei came to 95.5%. The Activity entry in the series with Mus musculus is recorded as “Non-Toxic”. Moreover, the results for the pIC50 in the series with Plasmodium falciparum and at Ferriprotoporphyrin IX were 6.04 and under 3.30, respectively.
On the same counts, the results for `Clc1ccc2c(Nc3ccc(Nc4nc(Cl)nc(N5CCCCC5)n4)cc3)ccnc2c1` are 94.1%, “Non-Toxic”, 6.93 and 4.69.
On the same counts, the results for `CCN(c1ccccc1)c1nc(Cl)nc(Nc2ccc(Nc3ccnc4cc(Cl)ccc34)cc2)n1` are 97%, “Non-Toxic”, 6.66 and 4.53.
In the same order, the values of `Clc1ccc2c(Nc3ccc(Nc4nc(Cl)nc(N5CCOCC5)n4)cc3)ccnc2c1` are 97%, “Non-Toxic”, 6.86 and 4.68.
Take `CN(c1ccccc1)c1nc(Cl)nc(Nc2ccc(Nc3ccnc4cc(Cl)ccc34)cc2)n1`: the inhibition in vivo at 200 mg/kg in the series on Plasmodium berghei was 91.1%. The Activity entry in the series on Mus musculus was “Non-Toxic”. In addition, the figures for the pIC50 in the series on Plasmodium falciparum and at Ferriprotoporphyrin IX were 6.57 and 4.63, respectively.
For the compound `C[C@@H]1CC[C@H]2[C@@H](C)C(=O)O[C@@H]3O[C@@]4(C)CC[C@@H]1[C@]32OO4` [ARTEMISININ], the negative-log IC50 (pIC50) in the series on Plasmodium falciparum was 7.82.
For the compound `CCN(CC)CCCC(C)Nc1ccnc2cc(Cl)ccc12` (stereo not drawn) [CHLOROQUINE], the inhibition in vivo at 200 mg/kg in the series on Plasmodium berghei is 83%. Besides, the pIC50 at Ferriprotoporphyrin IX is 4.57.
